Here are results for 15 molecules from patent publication US11096930B2, “Substituted imidazopyridine compounds as inhibitors of indoleamine 2,3-dioxygenase and/or tryptophan-2,3-dioxygenase” (IOMet Pharma Ltd., priority 2016, dated 2021).

Structures are written as SMILES.

In assay [1] the target is T1, IDO (Homo sapiens (Human), UniProt P14902). The assay can be described thus: hIDO biochemical coupled assay. As to conditions: 45 μM L-tryptophan. The procedure:
(§1) Exemplary compounds disclosed herein were prepared, and tested to determine their effect as IDO and/or TDO inhibitors. Two different assays were employed: 1. a cell-based assay for detecting the effect of test compounds on kynurenine production in two different cancer cell types. This assay utilized cancer cells which expressed either TDO or IDO and as such was used as a means of testing compound activity at these two enzymes in a cell-based context. 2. a TDO and IDO biochemical coupled assay which utilized recombinantly produced and purified TDO and IDO enzymes in combination with the enzyme formamidase. This coupled enzyme system allowed conversion of N-formylkynurenine produced by TDO or IDO activity to kynurenine which was then quantified by fluorescence following addition of Erhlich's Reagent. The protocols for these are set out below.
(§2) TDO and IDO Biochemical Coupled Assay
(§3) Recombinant human IDO or TDO was incubated in 50 mM KPO4 (pH 7.0), 0.5 mM EGTA, 0.5 mM EDTA, 0.05% Triton™ X100, 20 mM ascorbate, 10 μM methylene blue, 500 U/ml catalase, 50 μg/ml KynB (kynurenine formamidase). […] After incubation for 17 minutes at room temperature the reactions were stopped by the addition of Erhlich's reagent and incubated at room temperature for 5 minutes before the fluorescence was read.

Assay [2] deals with T1, IDO. Description: SKOV3 (IDO) cell based assay for detection of kynurenine. The following applies: SKOV3 cells, IDO induced by IFN-γ, 48 hours, read-out: pIC50 SKOV3 (IDO) cell based assay (converted). The procedure:
as §1
(§4) A172 and SKOV3 Cell Based Assays for Detection of Kynurenine Produced by TDO and/or IDO
(§5) A172 (human glioblastoma) and SKOV3 (human ovarian adenocarcinoma) cells were seeded in a 96 well plate at 30,000 or 40,000 cells per well respectively in phenol red-free RPMI supplemented with 10% FCS, 2 mM L-glutamine and 500 μM L-tryptophan. IDO expression was induced in the SKOV3 cells by the addition of 500 ng/ml IFN-γ. Cells were incubated at 37° C. with or without the addition of test compound. After 48 hours, the cells were removed by centrifugation and Erhlich's reagent was added to the supernatant.

Assay [3] addresses T2, TDO (Homo sapiens (Human), UniProt P48775). Description: A172 (TDO) cell based assay for detection of kynurenine. The following applies: A172 cells, 48 hours, read-out: pIC50 A172 (TDO) cell based assay (converted). The procedure: as §1, §4, §5
The target of assay [4] is T2, TDO. The assay can be described thus: hTDO biochemical coupled assay. As to conditions: 330 μM L-tryptophan. Here is the method: as §1, §2, §3

T1 sequence (P14902 whole entry): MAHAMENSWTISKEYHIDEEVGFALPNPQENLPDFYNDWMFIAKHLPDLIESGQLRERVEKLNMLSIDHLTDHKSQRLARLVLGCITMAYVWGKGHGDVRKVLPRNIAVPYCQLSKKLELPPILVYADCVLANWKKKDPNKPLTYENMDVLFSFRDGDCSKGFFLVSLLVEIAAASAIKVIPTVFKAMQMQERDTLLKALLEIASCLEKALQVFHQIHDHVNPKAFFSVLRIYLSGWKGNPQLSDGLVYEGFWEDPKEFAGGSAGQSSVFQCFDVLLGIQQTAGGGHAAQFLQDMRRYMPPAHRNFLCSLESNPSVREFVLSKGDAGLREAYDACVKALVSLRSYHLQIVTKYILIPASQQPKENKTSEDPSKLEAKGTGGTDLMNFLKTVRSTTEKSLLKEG
T2 sequence (P48775 whole entry): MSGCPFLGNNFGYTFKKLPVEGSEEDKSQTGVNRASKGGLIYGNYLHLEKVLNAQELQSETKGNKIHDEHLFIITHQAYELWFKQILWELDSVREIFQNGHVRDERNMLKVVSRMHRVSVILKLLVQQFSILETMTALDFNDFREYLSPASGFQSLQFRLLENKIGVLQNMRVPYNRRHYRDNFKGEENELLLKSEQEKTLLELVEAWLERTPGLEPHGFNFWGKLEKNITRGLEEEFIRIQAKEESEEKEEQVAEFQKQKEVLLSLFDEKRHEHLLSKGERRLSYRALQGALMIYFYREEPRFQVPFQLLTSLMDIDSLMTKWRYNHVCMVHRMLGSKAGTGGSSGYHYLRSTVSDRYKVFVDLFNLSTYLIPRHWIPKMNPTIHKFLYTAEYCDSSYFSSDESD

As for `O=C1NC(=O)C2(CCN(c3cc(Br)cc4cncn34)CC2)N1` [Example 2, 8-(7-Bromoimidazo[1,5-a]pyridin-5-yl)-1,3,8-triazaspiro[4.5]decane-2,4-dione], the “pIC50 hIDO biochemical coupled assay” value in assay [1] turned out to be 7.19. The IC50 is 0.562 µM in assay [2] and more than 10 µM in assay [3]. For the same molecule, in assay [4], the “pIC50 hTDO biochemical coupled assay” value is 6.29.
On to `CN1C(=O)NC2(CCN(c3cc(C(F)(F)F)cc4cncn34)CC2(C)C)C1=O` (stereo not shown) [Example 10, 3,6,6-Trimethyl-8-(7-(trifluoromethyl)imidazo[1,5-a]pyridin-5-yl)-1,3,8-triazaspiro[4.5]decane-2,4-dione], for which the “pIC50 hIDO biochemical coupled assay” value in assay [1] was 6.2. The IC50 in assay [2] was 7.76 µM; in assay [3], more than 10 µM. Further, the “pIC50 hTDO biochemical coupled assay” value in assay [4] was determined as 5.57.
For `CN1C(=O)NC2(CCN(c3cc(C(F)(F)F)cc4cncn34)CC2)C1=O` [Example 6, 3-Methyl-8-(7-(trifluoromethyl)imidazo[1,5-a]pyridin-5-yl)-1,3,8-triazaspiro[4.5]decane-2,4-dione], in that order: 5.89, 6.17 µM, more than 10 µM and 5.74.
On to `CC1(C)CN(c2cc(Cl)cc3cncn23)CCC12NC(=O)NC2=O` (stereo not shown) [Example 8, 8-(7-Chloroimidazo[1,5-a]pyridin-5-yl)-6,6-dimethyl-1,3,8-triazaspiro[4.5]decane-2,4-dione], for which the IC50 is 0.2 µM in assay [2] and 7.94 µM in assay [3].
On to `O=C1NC(=O)C2(CCN(c3cc(C(F)(F)F)cn4cncc34)CC2)N1` [Example 4, 8-(6-(Trifluoromethyl)imidazo[1,5-a]pyridin-8-yl)-1,3,8-triazaspiro[4.5]decane-2,4-dione], for which the “pIC50 hIDO biochemical coupled assay” value in assay [1] was 5.99. Besides, the results for the IC50 in assay [2] and in assay [3] were 4.79 µM and more than 10 µM, respectively. The “pIC50 hTDO biochemical coupled assay” value in assay [4] is given as 5.84.
For `CC1(C)CN(c2cc(C(F)(F)F)cn3cncc23)CCC12NC(=O)NC2=O` (stereo not shown) [Example 12, 6,6-Dimethyl-8-(6-(trifluoromethyl)imidazo[1,5-a]pyridin-8-yl)-1,3,8-triazaspiro[4.5]decane-2,4-dione], in that order: 5.74, 1.17 µM, 0.661 µM and 6.1.
On the same counts, the results for `CC1(C)CN(c2cc(Br)cc3cncn23)CCC12NC(=O)NC2=O` (stereo not shown) [Example 16, 8-(7-Bromoimidazo[1,5-a]pyridin-5-yl)-6,6-dimethyl-1,3,8-triazaspiro[4.5]decane-2,4-dione] are 7.06, 0.135 µM, 7.94 µM and 5.92.
Consider `O=C1NC(=O)C2(CCN(c3cc(C(F)(F)F)cc4cncn34)CC2)N1` [Example 1, 8-(7-(Trifluoromethyl)imidazo[1,5-a]pyridin-5-yl)-1,3,8-triazaspiro[4.5]decane-2,4-dione], for which, in assay [1], the “pIC50 hIDO biochemical coupled assay” value worked out at 7.53. In addition, the IC50 is 0.617 µM in assay [2] and more than 10 µM in assay [3]. The “pIC50 hTDO biochemical coupled assay” value in assay [4] came out at 5.6.
For `CC1(C)CN(c2cc(Cl)cc3cncn23)CCC12NC(=O)NC2=O` (stereo not shown) [Example 11, 8-(7-Chloroimidazo[1,5-a]pyridin-5-yl)-6,6-dimethyl-1,3,8-triazaspiro[4.5]decane-2,4-dione], in that order: 6.99, 3.72 µM, 2.09 µM and 6.33.
For `O=C1NC(=O)C2(CCN(c3cc(Cl)cc4cncn34)CC2)N1` [Example 3, 8-(7-Chloroimidazo[1,5-a]pyridin-5-yl)-1,3,8-triazaspiro[4.5]decane-2,4-dione], in that order: 6.55, 1.41 µM, more than 10 µM and 5.85.
Turning to `CC1(C)CN(c2cc(C(F)(F)F)cc3cncn23)CCC12NC(=O)N(c1ccccc1)C2=O` (stereo not shown) [Example 15, 6,6-Dimethyl-3-phenyl-8-(7-(trifluoromethyl)imidazo[1,5-a]pyridin-5-yl)-1,3,8-triazaspiro[4.5]decane-2,4-dione], in assay [1], the “pIC50 hIDO biochemical coupled assay” value was found to be 5.66. Moreover, the IC50 was 5.62 µM in assay [2] and more than 10 µM in assay [3]. Further, the “pIC50 hTDO biochemical coupled assay” value in assay [4] is 4.42.
On the same counts, the results for `O=C1CC2(CCN(c3cc(C(F)(F)F)cc4cncn34)CC2)C(=O)N1` [Example 13, 8-(7-(trifluoromethyl)imidazo[1,5-a]pyridin-5-yl)-2,8-diazaspiro[4.5]decane-1,3-dione] are 6.53, 1.26 µM, more than 10 µM and 5.77.
Consider `O=C1NC2(CCN(c3cc(C(F)(F)F)cc4cncn34)CC2)C(=O)N1CC1CCOCC1` [Example 7, 3-((Tetrahydro-2H-pyran-4-yl)methyl)-8-(7-(trifluoromethyl)imidazo[1,5-a]pyridin-5-yl)-1,3,8-triazaspiro[4.5]decane-2,4-dione], for which the “pIC50 hIDO biochemical coupled assay” value in assay [1] was 5.92. Besides, the IC50 in assay [2] is 3.63 µM; in assay [3] it was 10 µM. Moreover, in assay [4], the “pIC50 hTDO biochemical coupled assay” value is given as 5.4.
For the molecule `O=C1NC2(CCN(c3cc(C(F)(F)F)cc4cncn34)CC2)C(=O)N1c1ccccc1` [Example 9, 3-Phenyl-8-(7-(trifluoromethyl)imidazo[1,5-a]pyridin-5-yl)-1,3,8-triazaspiro[4.5]decane-2,4-dione], the “pIC50 hIDO biochemical coupled assay” value in assay [1] turned out to be 6.58. In addition, the IC50 in assay [2] is 1.74 µM; in assay [3] it was more than 10 µM. In assay [4], the “pIC50 hTDO biochemical coupled assay” value stood at 5.78.
Take `CC1(C)CN(c2cc(C(F)(F)F)cc3cncn23)CCC12NC(=O)N(CC1CCOCC1)C2=O` (stereo not shown) [Example 14, 6,6-dimethyl-3-((tetrahydro-2H-pyran-4-yl)methyl)-8-(7-(trifluoromethyl)imidazo[1,5-a]pyridin-5-yl)-1,3,8-triazaspiro[4.5]decane-2,4-dione]: in assay [1], the “pIC50 hIDO biochemical coupled assay” value stood at 5.92. In addition, the IC50 was 4.68 µM in assay [2] and more than 10 µM in assay [3]. Besides, in assay [4], the “pIC50 hTDO biochemical coupled assay” value was determined as 4.78.
